The source of these data is BindingDB's records for patent US8962648 (Oncotherapy Science, 2015).

Where “and” joins values, the source holds several entries; their conditions need not be identical. Identical values can stand only once.

The experiment addresses T1, Lymphokine-activated killer T-cell-originated protein kinase (Homo sapiens, UniProt Q96KB5).
T1 sequence (Q96KB5 whole entry): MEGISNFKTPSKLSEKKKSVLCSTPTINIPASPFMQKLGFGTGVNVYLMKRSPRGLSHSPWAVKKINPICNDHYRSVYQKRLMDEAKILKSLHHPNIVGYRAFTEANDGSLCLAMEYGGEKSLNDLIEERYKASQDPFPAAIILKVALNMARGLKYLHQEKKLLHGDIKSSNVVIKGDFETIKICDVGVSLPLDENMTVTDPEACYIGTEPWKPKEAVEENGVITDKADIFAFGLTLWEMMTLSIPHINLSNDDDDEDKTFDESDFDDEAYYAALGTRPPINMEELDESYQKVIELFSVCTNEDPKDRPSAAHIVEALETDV
Kind of experiment: Kinase Assay. The note with it: pH 7.4; 25 °C. The procedure: PBK activity was determined in the presence or absence of compounds using fluorescein isothiocyanate-labeled (FITC-labeled) histone H3 peptide as a substrate. […] The serially diluted compounds, 0.8 ng/micro-L PBK (Carna Biosciences) and 100 nM FITC-labeled histone H3 peptide were reacted in a reaction buffer (20 mM HEPES, 0.01% Tween-20, 0.3 mM MgCl2, 2 mM dithiothreitol, 50 micro-M ATP, pH 7.4) at room temperature for 1 hour. The reaction was stopped by the addition of three fold assay volume of progressive binding solution. Following 0.5 hour incubation at room temperature.

`C[C@H](CN(C)C)c1ccc(-c2c(O)ccc3[nH]c(=O)c4sccc4c23)cc1` [US8962648, 1172] had a 50% inhibitory concentration (IC50) of 4 nM.

Consider `CC(NS(C)(=O)=O)c1ccc(-c2c(O)ccc3[nH]c(=O)c4sccc4c23)cc1` (centres undefined) [US8962648, 347], for which the concentration for half-maximal inhibition (IC50) is 3.7 nM and 2 nM.

The molecule `N#Cc1ccc2[nH]c(=O)c3sccc3c2c1-c1ccc(CN)cc1` [US8962648, 326] gave an IC50 of 13 nM. In other words, the double-digit nanomolar range.

With `NCCCc1ccc(-c2c(O)ccc3[nH]c(=O)c4sccc4c23)cc1` [US8962648, 273], the half-inhibitory concentration (IC50) was found to be 0.74 nM. Compared with the last molecule, the IC50 is about 18-fold lower.

The molecule `CC(C)(CN)c1ccc(-c2c(O)cc(Cl)c3[nH]c(=O)c4sccc4c23)cc1` [US8962648, 1260] gave a concentration for half-maximal inhibition (IC50) of 75 nM. Against the preceding molecule, the IC50 is about 100-fold higher.

In the case of `CCC(c1ccc(-c2c(O)ccc3[nH]c(=O)c4sccc4c23)cc1)N(CC)CC` (centres undefined) [US8962648, 338], 3.7 nM corresponded to half-maximal inhibition (IC50).

The molecule `O=c1[nH]c2ccc(O)c(-c3ccc(S(=O)(=O)NCCCl)cc3)c2c2c1CCC2` [US8962648, 1145] showed a half-inhibitory concentration (IC50) of 13 nM. Against the preceding molecule, the IC50 is about 3.5-fold higher.

`CN(C)CC(C)(C)c1ccc(-c2c(O)ccc3[nH]c(=O)c4sccc4c23)cc1` [US8962648, 308] displayed a concentration for half-maximal inhibition (IC50) of 2.8 nM.

`CNCCc1ccc(-c2c(O)cc(Br)c3[nH]c(=O)c4sccc4c23)cc1F` [US8962648, 1245] had an IC50 of 45 nM.

Take `COc1cc(C)c2[nH]c(=O)c3sccc3c2c1-c1ccc(CCN)c(Cl)c1` [US8962648, 1263]: inhibition was half-maximal at 33 nM (IC50).

Molecule `CS(=O)(=O)N1CCN(c2ccc(-c3c(O)ccc4[nH]c(=O)c5sccc5c34)cc2)CC1` [US8962648, 112] registered an IC50 of 12 nM.

In the case of `CC(N)c1ccc(-c2c(O)cc(Br)c3[nH]c(=O)c4sccc4c23)cc1` (centres undefined) [US8962648, 1032], half-maximal inhibition (IC50) required 47 nM.

In turn, `NCC1(c2ccc(-c3c(O)ccc4[nH]c(=O)c5sccc5c34)cc2)CC1` [US8962648, 348] returned a concentration for half-maximal inhibition (IC50) of 1.9 nM.

In turn, `COc1cc(C)c2[nH]c(=O)c3sc(F)cc3c2c1-c1ccc([C@@H](C)CN)cc1` [US8962648, 1375] gave an IC50 of 22 nM.

Consider `Cc1cc(O)c(-c2ccc(C3(CN(C)C)CCC3)cc2)c2c1[nH]c(=O)c1sccc12` [US8962648, 1372], for which it took 42 nM to reach half-maximal inhibition (IC50).

As for `CC[C@@H](c1ccc(-c2c(O)ccc3[nH]c(=O)c4sccc4c23)cc1)N(C)C` [US8962648, 1128], inhibition was half-maximal at 2.2 nM (IC50).

As to `O=c1[nH]c2ccc(O)c(-c3ccc(S(=O)(=O)NCCCl)cc3)c2c2ccsc12` [US8962648, 332], the IC50 turned out to be 23 nM. This IC50 lies about 10-fold higher than the previous one.

`CCNCc1ccc(-c2c(O)ccc3[nH]c(=O)c4sccc4c23)cc1` [US8962648, 267] showed an IC50 of 2 nM.

In turn, `Cc1cc(O)c(-c2ccc(C3(CN)CCC3)cc2)c2c1[nH]c(=O)c1sccc12` [US8962648, 1290] had an IC50 of 10 nM.
